# Data taken from PubChem BioAssay AID2366 (The Scripps Research Institute Molecular Screening Center, 2010).
# The source made the active and inactive calls.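 How the source made its calls: active means compounds picked for the later follow-up tests because of their potency and selectivity; inactive means compounds skipped in follow-up as weaker or less selective.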
# Target: Protein phosphatase methylesterase 1 (Homo sapiens) (UniProt Q9Y570)
# Assay: endogenous PME-1 and serine hydrolase inhibition – cell lysate, mouse brain cytosol, FP-rhodamine, gel ABPP, selectivity assay for PME-1 inhibitor project, dose response (AID 2366)
# Protein phosphatase methylesterase 1 (Homo sapiens), sequence (Q9Y570 whole entry, looked up): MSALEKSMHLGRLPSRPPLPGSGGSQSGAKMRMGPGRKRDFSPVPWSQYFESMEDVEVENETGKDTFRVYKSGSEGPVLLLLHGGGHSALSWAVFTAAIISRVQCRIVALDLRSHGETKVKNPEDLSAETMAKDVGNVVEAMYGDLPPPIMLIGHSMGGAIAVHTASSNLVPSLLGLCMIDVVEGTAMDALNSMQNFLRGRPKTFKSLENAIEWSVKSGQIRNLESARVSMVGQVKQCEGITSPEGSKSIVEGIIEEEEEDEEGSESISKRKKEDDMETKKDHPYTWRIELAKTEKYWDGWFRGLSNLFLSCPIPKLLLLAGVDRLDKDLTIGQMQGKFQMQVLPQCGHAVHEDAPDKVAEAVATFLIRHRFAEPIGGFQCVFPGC
row,Structure (SMILES),IC50
1,CS(=O)(=O)/C(C#N)=C/c1cccn1S(=O)(=O)c1ccc(C#N)cc1,4 µM
2,N#C/C(=C\c1cccn1S(=O)(=O)c1cccc(C#N)c1)S(=O)(=O)c1ccc(F)cc1,0.64 µM
3,CS(=O)(=O)/C(C#N)=C/c1cccn1S(=O)(=O)c1c(F)c(F)c(F)c(F)c1F,> 20 µM (inactive)
4,CS(=O)(=O)/C(C#N)=C/c1cccn1S(=O)(=O)c1ccccc1,10.8 µM
5,CS(=O)(=O)/C(C#N)=C/c1cccn1S(=O)(=O)c1ccc([N+](=O)[O-])cc1,3 µM
6,CC(C)(C)S(=O)(=O)/C(C#N)=C/c1cccn1S(=O)(=O)c1ccccc1,6.8 µM
7,CC(C)(C)S(=O)(=O)/C(C#N)=C/c1cccn1S(=O)(=O)c1cccc(C#N)c1,3.4 µM
8,CS(=O)(=O)/C(C#N)=C/c1cccn1S(=O)(=O)c1cccc(C#N)c1,2.5 µM
9,N#C/C(=C\c1cccn1S(=O)(=O)c1ccccc1)S(=O)(=O)c1ccccc1,> 20 µM (inactive)
